Results on 2 molecules are retold here after US12187679B2, “Hydroxylated psilocybin derivatives and methods of using” (Enveric Biosciences Canada Inc., priority 2020, dated 2025).

For assay [1], the system named is CHO-K1/Galpha15 cells lacking 5-HT2A. The assay is described as follows: Fluo-8 calcium release control assay in -5-HT2A cells. Type of assay: cell-based, Chinese Hamster. The conditions noted are these: FIG. 8D panel A. From the text:
(§1) Cell lines for pharmacology assays. CHO-K1/Galpha15 (GenScript, M00257) (−5-HT2A) and CHO-K1/5-HT2A (GenScript, M00250) (+5-HT2A) cells lines were used in both toxicology/growth inhibition (MTT) and calcium release assays. Briefly, CHO-K1/Galpha15 is a control cell line that constitutively expresses Galpha15 which is a promiscuous Gq protein. It is engineered as a host cell, allowing transfected receptor(s) to signal through the Gq signal transduction pathway and mobilize intracellular calcium from the endoplasmic reticulum (ER). These control cells lack any transgene encoding 5-HT2A receptors, thus preventing calcium mobilization in response to 5-HT2A activation. Conversely, CHO-K1/5-HT2A cells stably express 5-HT2A receptor in the CHO-K1 host background. […]
(§2) Increase in cytosolic calcium concentration by 5-HT2A activation and assessment of modulation. Changes in intracellular calcium concentration due to the treatment with assay compounds was measured using Fluo-8 dye (Abcam, #ab112129) according to the manufacturer's instructions. […] Fluorescence (ex 490 nm/em 525 nm) obtained after the addition of molecules was expressed relative to values obtained before addition of the molecules (relative Fluo-8 fluorescence=Fmax/F0, where Fmax=maximum fluorescence and F0=baseline fluorescence). Fluorescence intensities were measured using a Spectramax ID3 plate reader (www.moleculardevices.com). […]

A further assay concerns the target 5-HT2A receptor (Homo sapiens, UniProt P28223). The assay is described as follows: Fluo-8 calcium release assay, serotonin with and without compound (positive allosteric modulation), +5-HT2A cells. It counts as cell-based. The conditions noted are these: serotonin 3 uM with compound 3 uM, FIG. 8C.
Text: as §1, §2

Sequence of 5-HT2A receptor (P28223 whole entry): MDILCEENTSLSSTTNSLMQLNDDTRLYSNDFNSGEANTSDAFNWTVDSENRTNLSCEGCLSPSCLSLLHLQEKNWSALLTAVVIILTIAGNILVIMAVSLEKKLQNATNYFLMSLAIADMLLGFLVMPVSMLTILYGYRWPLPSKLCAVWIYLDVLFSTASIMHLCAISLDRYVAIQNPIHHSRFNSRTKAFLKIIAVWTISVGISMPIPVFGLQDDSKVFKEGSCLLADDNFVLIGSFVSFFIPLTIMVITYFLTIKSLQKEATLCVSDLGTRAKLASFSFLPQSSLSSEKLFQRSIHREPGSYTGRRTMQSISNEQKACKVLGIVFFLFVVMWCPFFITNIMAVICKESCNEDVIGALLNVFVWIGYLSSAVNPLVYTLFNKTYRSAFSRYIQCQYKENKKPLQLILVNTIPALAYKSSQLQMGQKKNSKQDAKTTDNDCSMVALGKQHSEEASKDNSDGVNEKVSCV

Consider `NCCc1c[nH]c2ccc(O)cc12` [serotonin, 5-hydroxytryptamine], for which the “calcium response (relative Fluo-8 fluorescence)” value in assay [1] is “did not exhibit a response”. In the case of `CC(=O)NCCc1c[nH]c2c(C)ccc(O)c12` [compound (IV), N-[2-(4-hydroxy-7-methyl-1H-indol-3-yl)ethyl]acetamide], the “time-dependent calcium flux (relative fluorescence, RFU) in response to serotonin with compound vs serotonin alone” value at 5-HT2A receptor is recorded as “elevated flux”.
